Experimental data: the NIST ThermoML archive (doi:10.1016/j.jct.2019.02.012)

Assay: mn = molality of the nth substance listed, in mol/kg
Conditions: 100 kPa, Liquid, Pycnometric method

O=C(O)[C@@H]1CCCN1 [L-proline] + O
mass density [kg/m3]
Conditions	298.15 K	303.15 K	308.15 K	313.15 K	318.15 K
m1 = 0.025	997.86	996.45	994.82	992.99	991.02
m1 = 0.05	998.65	997.24	995.6	993.77	991.79
m1 = 0.075	999.43	998.01	996.37	994.53	992.55
m1 = 0.1	1000.2	998.77	997.12	995.28	993.29
m1 = 0.125	1000.96	999.52	997.86	996.01	994.02

CN(C)C(=N)NC(=N)N.Cl [N,N-dimethylimidodicarbonimidic diamide hydrochloride] + O
mass density [kg/m3]
Conditions	298.15 K	303.15 K	308.15 K	313.15 K	318.15 K
m1 = 0.05	998.89	997.46	995.83	993.99	992.01
m1 = 0.1	1000.77	999.32	997.67	995.82	993.83
m1 = 0.15	1002.66	1001.21	999.56	997.69	995.69
m1 = 0.2	1004.6	1003.12	1001.46	999.59	997.6
